ChEMBL document CHEMBL1938230, “6-Position optimization of tricyclic 4-quinolone-based inhibitors of glycogen synthase kinase-3β: discovery of nitrile derivatives with picomolar potency” (Bioorg Med Chem Lett, 2012)

Legend:
[1] = target: T1, Mitogen-activated protein kinase kinase kinase 2 (Homo sapiens) (UniProt Q9Y2U5); test: Inhibition of human MAP3K2 in HL-60 cells lysate assessed as reduction of labeling of acyl-phosphate ATP probe at 100 nM; format: cell-free
T1 sequence (whole entry): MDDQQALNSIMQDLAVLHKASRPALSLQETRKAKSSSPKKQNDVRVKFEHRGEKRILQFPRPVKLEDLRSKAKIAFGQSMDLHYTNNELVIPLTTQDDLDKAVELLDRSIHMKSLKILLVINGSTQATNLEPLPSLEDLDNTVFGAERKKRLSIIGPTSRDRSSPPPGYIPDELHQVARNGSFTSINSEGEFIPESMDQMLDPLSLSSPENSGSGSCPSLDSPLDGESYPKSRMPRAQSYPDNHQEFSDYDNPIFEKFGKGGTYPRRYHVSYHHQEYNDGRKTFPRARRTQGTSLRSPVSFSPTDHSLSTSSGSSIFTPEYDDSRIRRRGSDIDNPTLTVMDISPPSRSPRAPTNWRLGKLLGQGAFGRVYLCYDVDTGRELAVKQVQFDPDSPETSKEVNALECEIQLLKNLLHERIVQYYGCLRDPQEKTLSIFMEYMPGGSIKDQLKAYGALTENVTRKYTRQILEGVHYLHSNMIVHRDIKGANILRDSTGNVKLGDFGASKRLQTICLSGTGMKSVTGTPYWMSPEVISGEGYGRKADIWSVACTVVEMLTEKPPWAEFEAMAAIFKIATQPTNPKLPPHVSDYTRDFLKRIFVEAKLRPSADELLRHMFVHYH

[2] = target: Calcium/calmodulin-dependent protein kinase kinase 2 (Homo sapiens) (UniProt Q96RR4); test: Inhibition of human CaMKK2 in HL-60 cells lysate assessed as reduction of labeling of acyl-phosphate ATP probe at 100 nM; format: cell-free
Chain of Calcium/calmodulin-dependent protein kinase kinase 2 (Homo sapiens) (Q96RR4 2-588 limits assumed): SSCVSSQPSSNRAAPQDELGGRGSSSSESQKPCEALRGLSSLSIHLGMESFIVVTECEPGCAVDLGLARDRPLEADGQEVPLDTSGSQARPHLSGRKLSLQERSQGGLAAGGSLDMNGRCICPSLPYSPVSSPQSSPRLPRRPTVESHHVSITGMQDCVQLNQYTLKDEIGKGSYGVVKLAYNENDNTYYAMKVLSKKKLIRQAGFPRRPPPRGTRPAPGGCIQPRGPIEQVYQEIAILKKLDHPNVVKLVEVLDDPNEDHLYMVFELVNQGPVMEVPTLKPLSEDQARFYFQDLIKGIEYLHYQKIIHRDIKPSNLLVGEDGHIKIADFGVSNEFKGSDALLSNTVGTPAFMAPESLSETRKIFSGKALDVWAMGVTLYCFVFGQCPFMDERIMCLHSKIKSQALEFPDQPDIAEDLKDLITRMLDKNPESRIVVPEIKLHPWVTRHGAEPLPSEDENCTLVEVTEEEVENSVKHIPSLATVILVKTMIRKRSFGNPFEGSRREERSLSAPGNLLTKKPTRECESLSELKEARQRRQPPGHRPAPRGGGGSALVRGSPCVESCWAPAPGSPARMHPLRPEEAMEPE

[3] = target: Misshapen-like kinase 1 (Homo sapiens) (UniProt Q8N4C8); test: Inhibition of human ZC3/MINK in HL-60 cells lysate assessed as reduction of labeling of acyl-phosphate ATP probe at 100 nM; format: cell-free
Chain of Misshapen-like kinase 1 (Homo sapiens) (Q8N4C8 whole entry, looked up): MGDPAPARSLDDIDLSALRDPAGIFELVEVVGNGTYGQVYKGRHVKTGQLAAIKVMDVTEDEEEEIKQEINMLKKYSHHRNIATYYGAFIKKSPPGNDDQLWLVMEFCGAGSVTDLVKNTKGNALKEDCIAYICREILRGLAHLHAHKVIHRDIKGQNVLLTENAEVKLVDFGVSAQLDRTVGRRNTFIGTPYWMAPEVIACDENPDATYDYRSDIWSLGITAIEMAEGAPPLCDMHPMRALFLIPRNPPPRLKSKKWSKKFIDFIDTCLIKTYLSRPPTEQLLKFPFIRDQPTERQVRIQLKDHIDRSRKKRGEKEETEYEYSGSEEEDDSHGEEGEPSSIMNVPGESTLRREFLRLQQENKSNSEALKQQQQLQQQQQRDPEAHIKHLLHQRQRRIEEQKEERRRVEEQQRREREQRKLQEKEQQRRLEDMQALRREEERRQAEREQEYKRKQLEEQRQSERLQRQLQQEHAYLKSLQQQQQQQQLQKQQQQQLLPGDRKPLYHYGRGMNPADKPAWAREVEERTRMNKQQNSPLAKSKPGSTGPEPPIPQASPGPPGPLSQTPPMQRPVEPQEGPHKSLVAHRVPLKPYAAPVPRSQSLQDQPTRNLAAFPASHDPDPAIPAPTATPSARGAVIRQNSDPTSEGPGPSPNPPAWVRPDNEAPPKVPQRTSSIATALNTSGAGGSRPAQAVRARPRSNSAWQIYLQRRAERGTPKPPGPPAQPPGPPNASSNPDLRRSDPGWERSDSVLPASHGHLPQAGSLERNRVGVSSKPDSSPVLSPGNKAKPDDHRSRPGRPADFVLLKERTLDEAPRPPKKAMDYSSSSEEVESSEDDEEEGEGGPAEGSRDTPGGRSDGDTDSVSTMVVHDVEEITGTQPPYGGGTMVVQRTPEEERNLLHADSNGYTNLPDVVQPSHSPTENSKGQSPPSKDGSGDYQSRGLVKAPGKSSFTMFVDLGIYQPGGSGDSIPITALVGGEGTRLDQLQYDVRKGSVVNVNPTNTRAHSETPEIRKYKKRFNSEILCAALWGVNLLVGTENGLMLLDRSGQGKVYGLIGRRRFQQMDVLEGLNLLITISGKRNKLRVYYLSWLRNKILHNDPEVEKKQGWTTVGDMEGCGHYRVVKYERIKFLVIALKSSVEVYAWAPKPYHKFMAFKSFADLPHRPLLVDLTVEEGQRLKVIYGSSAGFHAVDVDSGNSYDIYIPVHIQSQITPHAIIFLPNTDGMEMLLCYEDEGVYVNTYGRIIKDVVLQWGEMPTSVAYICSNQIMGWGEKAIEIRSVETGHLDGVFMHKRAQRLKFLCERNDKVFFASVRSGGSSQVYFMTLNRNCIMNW

HL-60 [4] = test: Inhibition of human ACK in HL-60 cells lysate assessed as reduction of labeling of acyl-phosphate ATP probe at 100 nM
[5] = target: T2, Inhibitor of nuclear factor kappa-B kinase subunit alpha (Homo sapiens) (UniProt O15111); test: Inhibition of human IKKalpha in HL-60 cells lysate assessed as reduction of labeling of acyl-phosphate ATP probe at 100 nM; format: cell-free
T2 sequence (whole entry): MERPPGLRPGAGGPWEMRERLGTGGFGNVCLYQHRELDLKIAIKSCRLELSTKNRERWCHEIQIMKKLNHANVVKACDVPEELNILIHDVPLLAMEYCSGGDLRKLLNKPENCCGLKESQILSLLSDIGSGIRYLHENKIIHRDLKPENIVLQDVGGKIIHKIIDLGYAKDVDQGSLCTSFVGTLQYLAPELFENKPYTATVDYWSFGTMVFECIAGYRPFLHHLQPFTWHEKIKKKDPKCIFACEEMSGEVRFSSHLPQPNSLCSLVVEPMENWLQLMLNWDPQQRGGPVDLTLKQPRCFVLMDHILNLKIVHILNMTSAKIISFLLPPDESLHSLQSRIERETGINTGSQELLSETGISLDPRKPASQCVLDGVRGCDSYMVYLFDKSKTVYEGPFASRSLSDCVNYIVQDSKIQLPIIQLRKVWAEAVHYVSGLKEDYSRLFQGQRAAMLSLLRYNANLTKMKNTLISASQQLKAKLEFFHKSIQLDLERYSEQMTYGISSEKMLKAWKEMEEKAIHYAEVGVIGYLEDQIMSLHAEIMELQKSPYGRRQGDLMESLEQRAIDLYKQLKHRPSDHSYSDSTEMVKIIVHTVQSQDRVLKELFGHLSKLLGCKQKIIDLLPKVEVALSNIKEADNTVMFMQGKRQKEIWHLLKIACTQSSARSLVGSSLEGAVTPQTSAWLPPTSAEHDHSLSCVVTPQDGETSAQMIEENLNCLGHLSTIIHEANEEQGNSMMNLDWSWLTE

[6] = target: T3, Serine/threonine-protein kinase TBK1 (Homo sapiens) (UniProt Q9UHD2); test: Inhibition of human TBK1 in HL-60 cells lysate assessed as reduction of labeling of acyl-phosphate ATP probe at 100 nM; format: cell-free
T3 sequence (whole entry): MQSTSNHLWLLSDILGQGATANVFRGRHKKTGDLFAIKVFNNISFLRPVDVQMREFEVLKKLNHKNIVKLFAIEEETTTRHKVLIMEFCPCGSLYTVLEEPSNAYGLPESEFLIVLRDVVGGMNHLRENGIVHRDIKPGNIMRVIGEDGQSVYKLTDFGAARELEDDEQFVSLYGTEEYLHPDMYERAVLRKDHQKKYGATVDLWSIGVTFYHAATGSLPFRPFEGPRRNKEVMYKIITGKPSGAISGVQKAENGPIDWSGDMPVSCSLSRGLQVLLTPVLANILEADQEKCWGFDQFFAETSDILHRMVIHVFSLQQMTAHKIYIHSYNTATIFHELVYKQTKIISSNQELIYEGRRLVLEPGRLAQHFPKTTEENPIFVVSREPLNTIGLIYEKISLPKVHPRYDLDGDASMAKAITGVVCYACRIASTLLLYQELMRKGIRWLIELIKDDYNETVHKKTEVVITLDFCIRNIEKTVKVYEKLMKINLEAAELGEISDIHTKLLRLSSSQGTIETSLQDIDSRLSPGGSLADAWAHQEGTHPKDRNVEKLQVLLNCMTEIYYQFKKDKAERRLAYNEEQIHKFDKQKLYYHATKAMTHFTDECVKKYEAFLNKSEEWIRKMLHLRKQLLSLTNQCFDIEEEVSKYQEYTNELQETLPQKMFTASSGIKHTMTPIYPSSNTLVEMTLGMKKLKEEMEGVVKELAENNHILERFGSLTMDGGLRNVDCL

HL-60 [7] = test: Inhibition of human MAP3K5/MAP3K6/MAP3K7 in HL-60 cells lysate assessed as reduction of labeling of acyl-phosphate ATP probe at 100 nM
[8] = target: TRAF2 and NCK-interacting protein kinase (Homo sapiens) (UniProt Q9UKE5); test: Inhibition of human ZC2/TNIK in HL-60 cells lysate assessed as reduction of labeling of acyl-phosphate ATP probe at 100 nM; format: cell-free
Chain of TRAF2 and NCK-interacting protein kinase (Homo sapiens) (Q9UKE5 whole entry, looked up): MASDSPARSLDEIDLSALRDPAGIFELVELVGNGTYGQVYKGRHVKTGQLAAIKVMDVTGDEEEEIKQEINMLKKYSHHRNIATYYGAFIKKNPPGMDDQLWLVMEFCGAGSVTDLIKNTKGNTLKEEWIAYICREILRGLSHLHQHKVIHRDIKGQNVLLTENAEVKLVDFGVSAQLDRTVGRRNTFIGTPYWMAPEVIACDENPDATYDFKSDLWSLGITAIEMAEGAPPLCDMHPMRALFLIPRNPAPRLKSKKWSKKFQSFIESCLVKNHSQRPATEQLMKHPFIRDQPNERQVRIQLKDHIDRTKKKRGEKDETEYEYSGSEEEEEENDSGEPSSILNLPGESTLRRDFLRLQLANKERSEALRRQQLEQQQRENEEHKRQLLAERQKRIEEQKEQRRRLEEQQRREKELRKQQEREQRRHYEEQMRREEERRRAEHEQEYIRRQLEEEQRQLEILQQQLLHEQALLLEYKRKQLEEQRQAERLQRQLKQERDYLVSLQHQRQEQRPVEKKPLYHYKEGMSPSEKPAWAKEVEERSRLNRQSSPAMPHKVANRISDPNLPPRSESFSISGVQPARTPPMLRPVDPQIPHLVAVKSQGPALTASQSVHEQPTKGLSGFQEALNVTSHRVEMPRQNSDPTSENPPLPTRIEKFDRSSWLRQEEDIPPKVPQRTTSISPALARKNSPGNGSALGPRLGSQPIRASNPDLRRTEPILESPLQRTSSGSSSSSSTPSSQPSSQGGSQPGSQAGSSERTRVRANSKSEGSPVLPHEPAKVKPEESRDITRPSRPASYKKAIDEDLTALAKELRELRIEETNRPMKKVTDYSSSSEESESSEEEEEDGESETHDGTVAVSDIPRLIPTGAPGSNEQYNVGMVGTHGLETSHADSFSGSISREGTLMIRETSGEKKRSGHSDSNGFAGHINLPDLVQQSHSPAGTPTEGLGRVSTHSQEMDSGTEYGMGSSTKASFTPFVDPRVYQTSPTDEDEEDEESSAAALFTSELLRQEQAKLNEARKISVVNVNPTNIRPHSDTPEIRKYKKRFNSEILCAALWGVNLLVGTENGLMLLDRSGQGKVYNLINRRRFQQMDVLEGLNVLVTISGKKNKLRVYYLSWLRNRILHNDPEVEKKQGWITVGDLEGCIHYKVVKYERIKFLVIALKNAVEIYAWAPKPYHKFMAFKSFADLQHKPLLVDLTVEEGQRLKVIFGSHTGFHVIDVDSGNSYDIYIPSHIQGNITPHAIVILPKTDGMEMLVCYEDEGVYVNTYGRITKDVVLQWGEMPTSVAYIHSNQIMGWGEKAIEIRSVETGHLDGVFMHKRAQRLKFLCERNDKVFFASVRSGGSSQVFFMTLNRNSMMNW

Row | inhibition [1] [%] | inhibition [2] [%] | inhibition [3] [%] | inhibition [5] [%] | inhibition [6] [%] | inhibition [8] [%] | SMILES | inhibition at 0.1 µM (HL-60 [4]) [%] | inhibition at 0.1 µM (HL-60 [7]) [%]
1 | < 35 | < 35 | < 35 | < 35 | < 35 | < 35 | C[C@H]1COc2c(NCCCc3ccccn3)c(F)c(N)c3c(=O)c(C#N)cn1c23 | < 35 | < 35
2 | < 35 | < 35 | < 35 | < 35 | < 35 | < 35 | C[C@H]1COc2c(NCCCn3cccn3)c(F)c(N)c3c(=O)c(C#N)cn1c23 | < 35 | < 35
3 | < 35 | < 35 | < 35 | < 35 | < 35 | < 35 | C[C@H]1COc2c(NCCCc3ccccn3)c(F)c(N)c3c(=O)c(C(=O)O)cn1c23 | < 35 | < 35
4 | < 35 | < 35 | < 35 | < 35 | < 35 | < 35 | C[C@H]1COc2c(NCCCn3cccn3)c(F)c(N)c3c(=O)c(C(=O)O)cn1c23 | < 35 | < 35
